According to patent US20250121000A1, “INHALABLE BICARBONATE COMPOSITIONS AND DELIVERY SYSTEMS THEREFOR” (Nebulize Performance Inc., priority 2023, published 2025):
Like-named read-outs stand apart in the source and are kept apart here.

Assays:
[1] = for gastrointestinal discomfort or side effects / self-reported breathing difficulties (chest tightness, shortness of breath, respiratory difficulty) and nausea: inhaled nebulized 3.5% sodium bicarbonate; for self-reported breathing difficulties (chest tightness, shortness of breath, respiratory difficulty) and nausea: all participants
Experimental: A randomized, single-blinded, crossover design was used. Participants completed a repeated sprint exercise protocol to total exhaustion in an indoor facility after inhaling 20 mL of a 3.5% sodium bicarbonate solution (700 mg) dissolved in water or a placebo (pure water) prior to the sprint test. Participants inhaled the solutions through a commercially available nebulizer (Pari Vios Nebulizer System™) for 30 min while seated at rest over 5 bouts of 6 min (4 mL/bout) prior to completing the first sprint set and were required to breathe the same solution for 60 seconds in between each set (described below).
The order of placebo or bicarbonate was assigned with a numbering system of 1 and 2 respectively, where half of the participants were randomly assigned a 1-2 vs 2-1 order with each trial separated by one week. Following the last trial, participants were asked to guess the order of trials. […] Participants were also asked to describe any noticeably breathing difficulties including chest tightness, shortness of breath or any sign of respiratory difficulty, as well as nausea.

[2] = upwards of / over 20 grams, literature studies, cited from earlier work
[3] = inhaled 3.5% sodium bicarbonate, sets 1-4, p<0.05
[4] = participants that completed more than 4 sprint sets, non-significant trend

**Q.** Which “average improvement in sprint time vs placebo, first half of each set (shuttle sprints 1-3)” value [1, 3] does the source give for `O=C([O-])O.[Na+]` [sodium bicarbonate] here?
**A.** 3.5%

**Q.** And the “improvement in average sprint time vs placebo, sprints 4-6 of each set” value [1, 3]?
**A.** 4.5%

**Q.** What about the “decrease in average sprint time vs placebo, overall (sprints 1-6 of each set)” value ([1]; inhaled 20 mL of 3.5% sodium bicarbonate solution (700 mg) by nebulizer plus 60 s between sets, 4 sets of 6x40 m sprints, p<0.05) of the same molecule?
**A.** 4.1%

**Q.** What about the “gastrointestinal discomfort or side effects” value [1] of the same molecule?
**A.** no participants experienced any symptoms of gastrointestinal discomfort or side effects

**Q.** What about the “self-reported breathing difficulties (chest tightness, shortness of breath, respiratory difficulty) and nausea” value [1] of the same molecule?
**A.** free of any such distress

**Q.** And the “self-reported breathing difficulties (chest tightness, shortness of breath, respiratory difficulty) and nausea” value ([1]; listed as nebulized bicarbonate)?
**A.** free of respiratory distress

**Q.** What about the “gastrointestinal discomfort or side effects” value ([1]; listed as Nebulized bicarbonate) of the same molecule?
**A.** without detrimental side effects

**Q.** What about the “improvement in performance (faster time) in sprint set 5” value [1, 4] of the same molecule?
**A.** 5%

**Q.** And the “improvement in performance (faster time) in sprint set 6” value [1, 4]?
**A.** 7%

**Q.** And the “faster sprint times after oral ingestion” value ([2]; listed as bicarbonate)?
**A.** ≤ 5%

**Q.** And the “faster sprint times after oral ingestion” value [2]?
**A.** < 5%
